Test results from patent US20240351997A1, “NOVEL PARP7 INHIBITOR AND USE THEREOF” (SHANGHAI QILU PHARMACEUTICAL RESEARCH AND DEVELOPMENT …, priority 2021, published 2024).

Biological target: PARP7 (Homo sapiens (Human), UniProt Q7Z3E1)
Test: In vitro enzymology experiment of PARP7 (enzymatic inhibition)
Format: biochemical
Outline: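 Histone-coated plate ADP-ribosylation format: compound preincubated 10 min at room temperature with preincubated (25 °C, 10 min) enzyme mixture; incorporated biotin detected by streptavidin-HRP and QuantaRed fluorescence (Ex550/Em620).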

Sequence of PARP7 (Q7Z3E1 whole entry): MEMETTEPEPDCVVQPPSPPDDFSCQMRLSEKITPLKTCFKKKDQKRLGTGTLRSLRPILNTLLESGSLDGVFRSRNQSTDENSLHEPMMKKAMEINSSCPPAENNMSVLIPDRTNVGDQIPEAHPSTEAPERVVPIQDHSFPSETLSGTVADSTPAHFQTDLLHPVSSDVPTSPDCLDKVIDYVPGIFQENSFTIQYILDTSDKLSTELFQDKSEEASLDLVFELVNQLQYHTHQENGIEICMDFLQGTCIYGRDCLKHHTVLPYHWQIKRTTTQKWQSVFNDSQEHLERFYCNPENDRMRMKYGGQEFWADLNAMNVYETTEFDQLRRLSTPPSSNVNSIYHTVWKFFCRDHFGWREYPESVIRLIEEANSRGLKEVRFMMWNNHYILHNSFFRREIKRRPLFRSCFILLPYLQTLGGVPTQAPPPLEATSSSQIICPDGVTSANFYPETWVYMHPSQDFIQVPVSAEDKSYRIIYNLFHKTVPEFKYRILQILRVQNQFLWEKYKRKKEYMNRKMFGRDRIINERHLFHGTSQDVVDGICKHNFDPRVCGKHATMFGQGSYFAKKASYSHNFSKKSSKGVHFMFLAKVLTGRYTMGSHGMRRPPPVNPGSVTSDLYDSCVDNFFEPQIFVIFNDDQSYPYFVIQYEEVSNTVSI

IC50 | Compound
0.65 nM | Cc1cnc(N2C[C@H](C)N(C(=O)OCCc3c[nH]c(=O)c(C(F)(F)F)c3)C[C@H]2C)nc1 [Example 166, 2-(6-Oxo-5-(trifluoromethyl)-1,6-dihydropyridin-3-yl)ethyl (2S,5R)-2,5-dimethyl-4-(5-methylpyrimidin-2-yl)piperazine-1-carboxylate]
5.98 nM | O=C(CCOCCN1CCCc2c1cn[nH]c2=O)N1CCN(c2ncc(C(F)(F)F)cn2)CC1 [Example 13, 1-(2-(3-Oxo-3-(4-(5-(trifluoromethyl)pyrimidin-2-yl)piperazin-1-yl)propoxy)ethyl)-2,3,4,6-tetrahydropyrido[2,3-d]pyridazin-5(1H)-one]
6.7 nM | O=C(CCOC[C@H]1CCCN1c1c[nH]c(=O)c(C(F)(F)F)c1)N1CCN(c2ncc(C(F)(F)F)cn2)CC1 [Example 10, (R)-5-(2-((3-Oxo-3-(4-(5-(trifluoromethyl)pyrimidin-2-yl)piperazin-1-yl)propoxy)methyl)pyrrolidin-1-yl)-3-(trifluoromethyl)pyridin-2(1H)-one]
7.02 nM | CC(C(=O)N1CCN(c2ncc(C(F)(F)F)cn2)CC1)c1c[nH]c(=O)c(C(F)(F)F)c1 (centres unmarked) [Example 60, 5-(1-Oxo-1-(4-(5-(trifluoromethyl)pyrimidin-2-yl)piperazin-1-yl)propan-2-yl)-3-(trifluoromethyl)pyridin-2(1H)-one]
0.65 nM | C[C@@H]1CN(C(=O)OCCc2c[nH]c(=O)c(C(F)(F)F)c2)C[C@H](C)N1c1ncc(C(F)(F)F)cn1 [Example 153, 2-(6-Oxo-5-(trifluoromethyl)-1,6-dihydropyridin-3-yl)ethyl (3R,5S)-3,5-dimethyl-4-(5-(trifluoromethyl)pyrimidin-2-yl)piperazine-1-carboxylate]
0.62 nM | O=C(O[C@@H](CO)Cc1c[nH]c(=O)c(C(F)(F)F)c1)N1CCN(c2ncc(C(F)(F)F)cn2)CC1 [Example 117, (R)-1-Hydroxy-3-(6-oxo-5-(trifluoromethyl)-1,6-dihydropyridin-3-yl)propan-2-yl 4-(5-(trifluoromethyl)pyrimidin-2-yl)piperazine-1-carboxylate]
1.4 nM | Cc1cnc(N2C[C@H](C)N(C(=O)O[C@@H](C)Cc3c[nH]c(=O)c(C(F)(F)F)c3)[C@@H](C)C2)nc1 [Example 171, (S)-1-(6-Oxo-5-(trifluoromethyl)-1,6-dihydropyridin-3-yl)propan-2-yl (2S,6S)-2,6-dimethyl-4-(5-methylpyrimidin-2-yl)piperazine-1-carboxylate]
2.78 nM | Cc1ccc(OC(=O)N2CCN(c3ncc(C(F)(F)F)cn3)CC2)cc1-c1c[nH]c(=O)c(C(F)(F)F)c1 [Example 135, 4-Methyl-3-(6-oxo-5-(trifluoromethyl)-1,6-dihydropyridin-3-yl)phenyl 4-(5-(trifluoromethyl)pyrimidin-2-yl)piperazine-1-carboxylate]
0.74 nM | O=C(CO[C@H]1CCC[C@@H]1c1c[nH]c(=O)c(C(F)(F)F)c1)N1CCN(c2ncc(C(F)(F)F)cn2)CC1 [Example 57, 5-((1R,2S)-2-(2-Oxo-2-(4-(5-(trifluoromethyl)pyrimidin-2-yl)piperazin-1-yl)ethoxy)cyclopentyl)-3-(trifluoromethyl)pyridin-2(1H)-one]
6.23 nM | C[C@@H](Cc1c[nH]c(=O)c(C(F)(F)F)c1)OC(=O)N1CC(Nc2ncc(C(F)(F)F)cn2)C1 [Example 54, (S)-1-(6-Oxo-5-(trifluoromethyl)-1,6-dihydropyridin-3-yl)propan-2-yl 3-((5-(trifluoromethyl)pyrimidin-2-yl)amino) azetidine-1-carboxylate]
0.52 nM | Cc1cnc(N2CCN(C(=O)O[C@@H](C)Cc3c[nH]c(=O)c(C(F)(F)F)c3)CC2)nc1 [Example 84, (S)-1-(6-Oxo-5-(trifluoromethyl)-1,6-dihydropyridin-3-yl)propan-2-yl 4-(5-methylpyrimidin-2-yl)piperazine-1-carboxylate]
1.5 nM | O=C(CCO[C@H]1CCC[C@@H]1c1c[nH]c(=O)c(C(F)(F)F)c1)N1CCN(c2ncc(C(F)(F)F)cn2)CC1 [Example 39, 5-((1R,2S)-2-(3-Oxo-3-(4-(5-(trifluoromethyl)pyrimidin-2-yl)piperazin-1-yl)propoxy)cyclopentyl)-3-(trifluoromethyl)pyridin-2(1H)-one]
0.9 nM | O=C(c1cccc(Cc2c[nH]c(=O)c(C(F)(F)F)c2)c1)N1CCN(c2ncc(C(F)(F)F)cn2)CC1 [Example 30, 3-(Trifluoromethyl)-5-(3-(4-(5-(trifluoromethyl)pyrimidin-2-yl)piperazine-1-carbonyl)benzyl)pyridin-2(1H)-one]
0.76 nM | C[C@@H]1CN(c2ncc(C3CC3)cn2)C[C@@H](C)N1C(=O)O[C@@H](C)Cc1c[nH]c(=O)c(C(F)(F)F)c1 [Example 175, (S)-1-(6-Oxo-5-(trifluoromethyl)-1,6-dihydropyridin-3-yl)propan-2-yl (2R,6R)-4-(5-cyclopropylpyrimidin-2-yl)-2,6-dimethylpiperazine-1-carboxylate]
1.3 nM | C[C@@H]1CN(c2ncc(C3CC3)cn2)C[C@H](C)N1C(=O)O[C@@H](C)Cc1c[nH]c(=O)c(C(F)(F)F)c1 [Example 174, (S)-1-(6-Oxo-5-(trifluoromethyl)-1,6-dihydropyridin-3-yl)propan-2-yl (2R,6S)-4-(5-cyclopropylpyrimidin-2-yl)-2,6-dimethylpiperazine-1-carboxylate]
2.3 nM | C[C@H]1CN(c2ncc(C(F)(F)F)cn2)C[C@H](C)N1C(=O)OCCc1c[nH]c(=O)c(C(F)(F)F)c1 [Example 145, 2-(6-Oxo-5-(trifluoromethyl)-1,6-dihydropyridin-3-yl)ethyl (2S,6S)-2,6-dimethyl-4-(5-(trifluoromethyl)pyrimidin-2-yl)piperazine-1-carboxylate]
1 nM | Cc1cnc(N2[C@H](C)CN(C(=O)OCCc3c[nH]c(=O)c(C(F)(F)F)c3)C[C@@H]2C)nc1 [Example 165, 2-(6-Oxo-5-(trifluoromethyl)-1,6-dihydropyridin-3-yl)ethyl (3S,5R)-3,5-dimethyl-4-(5-methylpyrimidin-2-yl)piperazine-1-carboxylate]
0.77 nM | O=C(OCCc1c[nH]c(=O)c(C(F)(F)F)c1)N1CCN(c2ncc(C(F)(F)F)cc2F)CC1 [Example 130, 2-(6-Oxo-5-(trifluoromethyl)-1,6-dihydropyridin-3-yl)ethyl 4-(3-fluoro-5-(trifluoromethyl)pyridin-2-yl)piperazine-1-carboxylate]
2.3 nM | C[C@@H](Cc1c[nH]c(=O)c(C(F)(F)F)c1)OC(=O)N1CC[C@@H](Nc2ncc(C(F)(F)F)cn2)C1 [Example 53, (S)-1-(6-Oxo-5-(trifluoromethyl)-1,6-dihydropyridin-3-yl)propan-2-yl (R)-3-((5-(trifluoromethyl)pyrimidin-2-yl)amino) pyrrolidine-1-carboxylate]
0.56 nM | C[C@@H](Cc1c[nH]c(=O)c(C(F)(F)F)c1)OC(=O)N1CCN(c2ncc(Cl)cn2)CC1 [Example 85, (S)-1-(6-Oxo-5-(trifluoromethyl)-1,6-dihydropyridin-3-yl)propan-2-yl 4-(5-chloropyrimidin-2-yl)piperazine-1-carboxylate]
0.9 nM | C[C@@H](Cc1c[nH]c(=O)c(C(F)(F)F)c1)OC(=O)N1[C@@H](C)CN(c2ncc(C(F)(F)F)cn2)C[C@@H]1C [Example 159, (S)-1-(6-Oxo-5-(trifluoromethyl)-1,6-dihydropyridin-3-yl)propan-2-yl (2S,6S)-2,6-dimethyl-4-(5-(trifluoromethyl)pyrimidin-2-yl)piperazine-1-carboxylate]
1.1 nM | O=C(OCC1(c2c[nH]c(=O)c(C(F)(F)F)c2)CC1)N1CCN(c2ncc(C(F)(F)F)cn2)CC1 [Example 41, (1-(6-Oxo-5-(trifluoromethyl)-1,6-dihydropyridin-3-yl)cyclopropyl)methyl 4-(5-(trifluoromethyl)pyrimidin-2-yl)piperazine-1-carboxylate]
1.94 nM | CC(Cc1c[nH]c(=O)c(C(F)(F)F)c1)OC(=O)N1CCN(c2ncccc2C#N)CC1 (centres unmarked) [Example 46, 1-(6-Oxo-5-(trifluoromethyl)-1,6-dihydropyridin-3-yl)propan-2-yl 4-(3-cyanopyridin-2-yl)piperazine-1-carboxylate]
2.27 nM | O=C(O[C@H]1CCC[C@@H]1c1c[nH]c(=O)c(C(F)(F)F)c1)N1CCN(c2ncc(C(F)(F)F)cn2)CC1 [Example 56, (1S,2R)-2-(6-Oxo-5-(trifluoromethyl)-1,6-dihydropyridin-3-yl)cyclopentyl 4-(5-(trifluoromethyl)pyrimidin-2-yl)piperazine-1-carboxylate]
1.82 nM | C[C@@H](Cc1c[nH]c(=O)c(C(F)(F)F)c1)OC(=O)N1CC[C@H](Nc2ncc(C(F)(F)F)cn2)C1 [Example 66, (S)-1-(6-Oxo-5-(trifluoromethyl)-1,6-dihydropyridin-3-yl)propan-2-yl (S)-3-((5-(trifluoromethyl)pyrimidin-2-yl)amino) pyrrolidine-1-carboxylate]
1.38 nM | CC(OC[C@@H]1CCCN1c1c[nH]c(=O)c(C(F)(F)F)c1)C(=O)N1CCN(c2ncc(C(F)(F)F)cn2)CC1 (some centres unmarked) [Example 83]
0.9 nM | Cc1cnc(N2C[C@@H](C)N(C(=O)OCCc3c[nH]c(=O)c(C(F)(F)F)c3)C[C@@H]2C)nc1 [Example 168, 2-(6-Oxo-5-(trifluoromethyl)-1,6-dihydropyridin-3-yl)ethyl (2R,5S)-2,5-dimethyl-4-(5-methylpyrimidin-2-yl)piperazine-1-carboxylate]
2.4 nM | O=C(Oc1ccnc(-c2c[nH]c(=O)c(C(F)(F)F)c2)c1)N1CCN(c2ncc(C(F)(F)F)cn2)CC1 [Example 137, 6′-Oxo-5′-(trifluoromethyl)-1′,6′-dihydro-[2,3′-bipyridin]-4-yl 4-(5-(trifluoromethyl)pyrimidin-2-yl)piperazine-1-carboxylate]
1.06 nM | O=C(OCC1CCCC1c1c[nH]c(=O)c(C(F)(F)F)c1)N1CCN(c2ncc(C(F)(F)F)cn2)CC1 (centres unmarked) [Example 59, (2-(6-Oxo-5-(trifluoromethyl)-1,6-dihydropyridin-3-yl)cyclopentyl)methyl 4-(5-(trifluoromethyl)pyrimidin-2-yl)piperazine-1-carboxylate]
